In this assay the test system is Wnt/β-catenin pathway. The assay can be described thus: Wnt reporter assay (TCF-Luciferase, Firefly) in DBTRG-05MG cells. To be noted: Homo sapiens, 24 hours after compound addition. It counts as cell-based. On the procedure:
TCF-Luciferase: Three copies of a 4×TCF responsive elements were cloned into the pcDNA3.1/Zeo(+) vector (Invitrogen) after deletion of the constitutive CMV promoter and the insertion of the Firefly Luciferase from Promega (phFL-TK) to measure the activity of the Wnt/β-catenin pathway. The resulting plasmid was sequenced for quality control.
Cells were grown in 20 μg/ml Zeocin and 20 μg/ml Zeocin plus 30 μg/ml Hygromicin respectively. The cells were plated at a density of 6500 cells/well in poly-D-lysine pre-treated 96 well-plates.
IC50 determination: 36 hours after plating cells were incubated with 8-points (60 μM-40 μM-20 μM-10 μM-5 μM-1.66 μM-0.55 μM-0.185 μM) dilutions compound (0.6% DMSO (v/v)). Each compound was tested in triplicate in single plate. Luciferase detection was done with Dual-Luciferase Reporter Assay System (Promega). 24 hours after compound addition, media was removed and 30 μl of 1× lysis buffer was added to each well for 30 minutes. To each well 45 μl of Dual-Glo Luciferase reagent (Promega) were added and after 1 second delay Luciferase was detected for 1 second using Mithras LB940 instrument. After Firefly luciferase quantification 45 μl of Dual Stop & Glo reagent (Promega) were added to each well and Firefly Renilla was detected using the same parameters described before.
Data were expressed as % of control for Firefly and Renilla luciferase independently; values were calculated using XLFit version 4.2, with a four parameters sigmoid function (XLFit model 205).

Structures are written as SMILES.

A word on the IC50: it is the midpoint of a concentration-inhibition curve. Lower therefore signals greater potency.

Compound `O=C(C1CC1)N1CCN(C(=O)[C@H]2CC[C@H](Cn3c(=O)[nH]c4ccc(Cl)cc4c3=O)CC2)CC1` [Example 63] gave an IC50 of 0.3 to 30 µM.

`CC(C)Cn1c(=O)n(C[C@H]2CC[C@H](C(=O)N3CCN(C(=O)C4CC4)CC3)CC2)c(=O)c2ccccc21` [Example 64] showed an IC50 of 0.3 to 30 µM.

`COc1ccc2[nH]c(=O)n(C[C@H]3CC[C@H](C(=O)N4CCN(C(=O)C5CCCC5)CC4)CC3)c(=O)c2c1` [Example 65] yielded an IC50 of 0.3 to 30 µM.

In turn, `CN1C(=O)N(C[C@H]2CC[C@H](C(=O)N3CCN(C(=O)C4CC4)CC3)CC2)Cc2ccccc21` [Example 67] showed an IC50 of 0.3 to 30 µM.

In turn, `CN1C(=O)N(C[C@H]2CC[C@H](C(=O)N3CCN(C(=O)C4CCCC4)CC3)CC2)Cc2ccccc21` [Example 68] had an IC50 of 0.3 to 30 µM.

Consider `COCC(=O)N1CCN(C(=O)[C@H]2CC[C@H](CN3Cc4ccccc4N(C)C3=O)CC2)CC1` [Example 69], for which the IC50 is 0.3 to 30 µM.

In turn, `O=c1[nH]c2ccccc2c(=O)n1C[C@H]1CC[C@H](C(=O)Nc2cccc3cccnc23)CC1` [Example 70] returned a half-inhibitory concentration (IC50) of 0.3 to 30 µM.

Compound `O=C(C1CCCC1)N1CCN(C(=O)[C@H]2CC[C@H](CN3Cc4ccccc4NC3=O)CC2)CC1` [Example 72] came in with an IC50 of 0.3 to 30 µM.

Regarding `O=C(C1CC1)N1CCN(C(=O)[C@H]2CC[C@H](Cn3c(=O)c4ccccc4n(CC4CC4)c3=O)CC2)CC1` [Example 73], the IC50 lay within 0.3 to 30 µM.

Turning to `O=C(C1CC1)N1CCN(C(=O)[C@H]2CC[C@H](Cn3c(=O)[nH]c4ccccc43)CC2)CC1` [Example 74], the IC50 fell in the range of 0.3 to 30 µM.

`COc1ccc2c(c1)c(=O)n(C[C@H]1CC[C@H](C(=O)N3CCN(C(=O)C4CCCC4)CC3)CC1)c(=O)n2C` [Example 76] displayed an IC50 of 0.3 to 30 µM.

With `Cn1c(=O)n(C[C@H]2CC[C@H](C(=O)N3CCN(C(=O)C4CCCO4)CC3)CC2)c(=O)c2ccccc21` (stereo partly drawn) [Example 81], the 50% inhibitory concentration (IC50) fell in the range of 0.3 to 30 µM.

As for `O=C(C1CC1)N1CCN(C(=O)[C@H]2CC[C@H](Cn3c(=O)[nH]c4ccc(F)cc4c3=O)CC2)CC1` [Example 82], the IC50 lay within 0.3 to 30 µM.

Regarding `O=C(C1CC1)N1CCN(C(=O)[C@H]2CC[C@H](Cn3c(=O)c4ccccc4n(C(F)F)c3=O)CC2)CC1` [Example 83], the IC50 is 0.3 to 30 µM.

In turn, `COc1ccc2c(c1)c(=O)n(C[C@H]1CC[C@H](C(=O)N3CCN(C(=O)C4CC4)CC3)CC1)c(=O)n2CC1CC1` [Example 84] yielded an IC50 of 0.3 to 30 µM.

`O=C(C1CC1)N1CCN(C(=O)[C@H]2CC[C@H](CN3Cc4cc(Cl)ccc4NC3=O)CC2)CC1` [Example 85] returned an IC50 of 0.3 to 30 µM.

`COc1ccc2[nH]c(=O)n(C[C@H]3CC[C@H](C(=O)N4CCN(C)C(=O)C4)CC3)c(=O)c2c1` [Example 86] came in with an IC50 of 0.3 to 30 µM.

`CCN1CCN(C(=O)[C@H]2CC[C@H](Cn3c(=O)[nH]c4ccc(OC)cc4c3=O)CC2)CC1=O` [Example 87]: the IC50 was 0.3 to 30 µM.

`COCCN1CCN(C(=O)[C@H]2CC[C@H](Cn3c(=O)[nH]c4ccc(OC)cc4c3=O)CC2)CC1=O` [Example 88] registered an IC50 of 0.3 to 30 µM.

On to `COc1ccc2[nH]c(=O)n(C[C@H]3CC[C@H](C(=O)N4CCOCC4)CC3)c(=O)c2c1` [Example 89], for which the half-inhibitory concentration (IC50) lay in the range of 0.3 to 30 µM.

For the compound `COc1ccc2[nH]c(=O)n(C[C@H]3CC[C@H](C(=O)N4CCCOCC4)CC3)c(=O)c2c1` [Example 90], the IC50 was in the range of 0.3 to 30 µM.

In turn, `COc1ccc2[nH]c(=O)n(C[C@H]3CC[C@H](C(=O)N4CCN(c5cnccn5)CC4)CC3)c(=O)c2c1` [Example 91] displayed a 50% inhibitory concentration (IC50) of 0.3 to 30 µM.

Consider `CCN1CCN(C(=O)[C@H]2CC[C@H](Cn3c(=O)c4cc(OC)ccc4n(C)c3=O)CC2)CC1=O` [Example 93], for which the IC50 lay in the range of 0.3 to 30 µM.

For `COCCN1CCN(C(=O)[C@H]2CC[C@H](Cn3c(=O)c4cc(OC)ccc4n(C)c3=O)CC2)CC1=O` [Example 94], the concentration for half-maximal inhibition (IC50) fell in the range of 0.3 to 30 µM.

As for `Cc1ccc2[nH]c(=O)n(C[C@H]3CC[C@H](C(=O)N4CCN(C(=O)C5CC5)CC4)CC3)c2c1` [Example 95], the IC50 was 0.3 to 30 µM.

Take `COc1ccc2[nH]c(=O)n(C[C@H]3CC[C@H](C(=O)N4CCN(C(=O)C(C)(C)F)CC4)CC3)c(=O)c2c1` [Example 96]: the IC50 was 0.3 to 30 µM.

For the compound `COc1ccc2[nH]c(=O)n(C[C@H]3CC[C@H](C(=O)N4CCN(C(=O)C5CC5(F)F)CC4)CC3)c(=O)c2c1` (stereo partly drawn) [Example 97], the concentration for half-maximal inhibition (IC50) was 0.3 to 30 µM.

As for `COc1ccc2[nH]c(=O)n(C[C@H]3CC[C@H](C(=O)N4CCN(c5ncccn5)CC4)CC3)c(=O)c2c1` [Example 98], the IC50 lay in the range of 0.3 to 30 µM.

In turn, `CCCC(C)C(=O)N1CCN(C(=O)[C@H]2CC[C@H](Cn3c(=O)[nH]c4ccc(OC)cc4c3=O)CC2)CC1` (stereo partly drawn) [Example 100] registered an IC50 of 0.3 to 30 µM.

Compound `CCC(C)C(=O)N1CCN(C(=O)[C@H]2CC[C@H](Cn3c(=O)[nH]c4ccc(OC)cc4c3=O)CC2)CC1` (stereo partly drawn) [Example 101] yielded a concentration for half-maximal inhibition (IC50) of 0.3 to 30 µM.

As for `COc1ccc2[nH]c(=O)n(C[C@H]3CC[C@H](C(=O)N4CCN(C(=O)c5ccno5)CC4)CC3)c(=O)c2c1` [Example 102], the IC50 lay in the range of 0.3 to 30 µM.

`COc1ccc2[nH]c(=O)n(C[C@H]3CC[C@H](C(=O)N4CCN(C(=O)OC(C)C)CC4)CC3)c(=O)c2c1` [Example 103]: the IC50 lay in the range of 0.3 to 30 µM.

As to `CCC(C)OC(=O)N1CCN(C(=O)[C@H]2CC[C@H](Cn3c(=O)[nH]c4ccc(OC)cc4c3=O)CC2)CC1` (stereo partly drawn) [Example 104], the IC50 lay in the range of 0.3 to 30 µM.

Turning to `COc1ccc2[nH]c(=O)n(C[C@H]3CC[C@H](C(=O)N4CCN(CC5CC5)C(=O)C4)CC3)c(=O)c2c1` [Example 105], the IC50 lay within 0.3 to 30 µM.

In turn, `COc1ccc2[nH]c(=O)n(C[C@H]3CC[C@H](C(=O)N4CCN(C(=O)C5CCC5)CC4)CC3)c(=O)c2c1` [Example 106] returned an IC50 of 0.3 to 30 µM.

The compound `CC(C)(F)C(=O)N1CCN(C(=O)[C@H]2CC[C@H](Cn3c(=O)[nH]c4ccccc4c3=O)CC2)CC1` [Example 107] displayed an IC50 of 0.3 to 30 µM.

With `O=C(C1CC1(F)F)N1CCN(C(=O)[C@H]2CC[C@H](Cn3c(=O)[nH]c4ccccc4c3=O)CC2)CC1` (stereo partly drawn) [Example 108], the IC50 was 0.3 to 30 µM.

Turning to `COc1ccc2[nH]c(=O)n(C[C@H]3CC[C@H](C(=O)N4CCN(C(=O)[C@@H]5CCCO5)CC4)CC3)c(=O)c2c1` [Example 110], the IC50 was in the range of 0.3 to 30 µM.

`O=C(C1CC1)N1CCN(C(=O)[C@H]2CC[C@H](Cn3c(=O)[nH]c4cc(Cl)ccc43)CC2)CC1` [Example 111] displayed an IC50 of 0.3 to 30 µM.

Take `O=C(C1CC1)N1CCN(C(=O)[C@H]2CC[C@H](Cn3c(=O)[nH]c4cc(C(F)(F)F)ccc43)CC2)CC1` [Example 112]: the IC50 was in the range of 0.3 to 30 µM.

`COc1ccc2[nH]c(=O)n(C[C@H]3CC[C@H](C(=O)Nc4ccncc4)CC3)c(=O)c2c1` [Example 113] showed an IC50 of 0.3 to 30 µM.

Take `COc1ccc2[nH]c(=O)n(C[C@H]3CC[C@H](C(=O)Nc4ccc5oc(C)nc5c4)CC3)c(=O)c2c1` [Example 114]: the IC50 was 0.3 to 30 µM.

In turn, `COc1ccc2[nH]c(=O)n(C[C@H]3CC[C@H](C(=O)N4CCN(C(=O)c5cncn5C)CC4)CC3)c(=O)c2c1` [Example 115] came in with a half-inhibitory concentration (IC50) of 0.3 to 30 µM.

`COc1ccc2[nH]c(=O)n(C[C@H]3CC[C@H](C(=O)N4CCN(C(=O)c5ccncn5)CC4)CC3)c(=O)c2c1` [Example 117] yielded an IC50 of 0.3 to 30 µM.

The compound `COc1ccccc1NC(=O)[C@H]1CC[C@H](CN2CCc3ccccc3NC2=O)CC1` [Example 118] had an IC50 of 0.3 to 30 µM.

For the compound `COc1ccccc1NC(=O)[C@H]1CC[C@H](CN2C(=O)Cc3ccccc3N(C)C2=O)CC1` [Example 119], the IC50 was in the range of 0.3 to 30 µM.

Compound `COc1ccccc1NC(=O)[C@H]1CC[C@H](CN2C(=O)Cc3ccccc3NC2=O)CC1` [Example 120] had an IC50 of 0.3 to 30 µM.

Turning to `COc1ccc2c(c1)c(=O)n(C[C@H]1CC[C@H](C(=O)N3CCN(c4nccs4)CC3)CC1)c(=O)n2C` [Example 121], the IC50 was 0.3 to 30 µM.

The compound `CCC(C)C(=O)N1CCN(C(=O)[C@H]2CC[C@H](Cn3c(=O)c4cc(OC)ccc4n(C)c3=O)CC2)CC1` (stereo partly drawn) [Example 123] showed an IC50 of 0.3 to 30 µM.

With `CCCC(C)C(=O)N1CCN(C(=O)[C@H]2CC[C@H](Cn3c(=O)c4cc(OC)ccc4n(C)c3=O)CC2)CC1` (stereo partly drawn) [Example 124], the half-inhibitory concentration (IC50) lay in the range of 0.3 to 30 µM.

As to `COc1ccc2c(c1)c(=O)n(C[C@H]1CC[C@H](C(=O)N3CCN(C(=O)OCC(C)C)CC3)CC1)c(=O)n2C` [Example 125], the IC50 fell in the range of 0.3 to 30 µM.

In turn, `COc1ccc2[nH]c(=O)n(C[C@H]3CC[C@H](C(=O)N4CCN(C(=O)C5CC5)C[C@H]4C)CC3)c(=O)c2c1` [Example 126] came in with a 50% inhibitory concentration (IC50) of 0.3 to 30 µM.

In turn, `COCC(=O)N1CCN(C(=O)[C@H]2CC[C@H](Cn3c(=O)[nH]c4ccc(OC)cc4c3=O)CC2)[C@H](C)C1` [Example 127] had an IC50 of 0.3 to 30 µM.

In turn, `COc1ccc2c(c1)c(=O)n(C[C@H]1CC[C@H](C(=O)N3CCN(C(=O)[C@@H]4CCCO4)CC3)CC1)c(=O)n2C` [Example 128] showed a half-maximal inhibitory concentration (IC50) of 0.3 to 30 µM.

For `COc1ccc2c(c1)c(=O)n(C[C@H]1CC[C@H](C(=O)N3CCN(C(=O)C4CCC4)CC3)CC1)c(=O)n2C` [Example 129], the IC50 lay within 0.3 to 30 µM.

Compound `COc1ccc2c(c1)c(=O)n(C[C@H]1CC[C@H](C(=O)N3CCN(C(=O)OC(C)C)CC3)CC1)c(=O)n2C` [Example 130] returned an IC50 of 0.3 to 30 µM.

Regarding `COc1ccc2c(c1)c(=O)n(C[C@H]1CC[C@H](C(=O)N3CCN(C(=O)[C@H]4CCCO4)CC3)CC1)c(=O)n2C` [Example 131], the IC50 is 0.3 to 30 µM.

These data come from patent US8865704B2, “Wnt pathway antagonists” (Siena Biotech S.p.A., priority 2009, dated 2014).
